Results from patent US6528516B1, “Methods for reducing intraocular pressure using A3 adenosine receptor antagonists” (Trustees of the University of Pennsylvania, The Center for …, priority 1998, dated 2003).
Several values for one entry are separate records, joined by “and”; a condition that tells them apart may be missing. Identical values can stand only once.

System: HCE (human ciliary epithelial) cell line, NPE cells
Assay: Cell volume (shrinkage) of NPE cells in isosmotic solution, Coulter Counter, 5 μM gramicidin
Format: cell-based
Protocol: A 0.5-ml aliquot of the HCE cell suspension in DMEM was added to 20 ml of each test solution, which contained (in mM): 110.0 NaCl, 15.0HEPES [4-(2-hydroxyethyl)-1-piperazineethanesulfonic acid], 2.5 CaCl2, 1.2 MgCl2, 4.7 KCl, 1.2 KH2PO4, 30.0 NaHCO3, and 10.0 glucose, at a pH of 7.4 and osmolality of 298-305 mOsm. Parallel aliquots of cells were studied on the same day. One aliquot usually served as a control, and the others were exposed to different experimental conditions at the time of suspension. The same amount of solvent vehicle (dimethylformamide, DMSO or ethanol) was always added to the control and experimental aliquots. The sequence of studying the suspensions was varied to preclude systematic time-dependent artifacts (Civan et al., Exp. Eye Res. 54:181-191, 1992).
Cell volumes of isosmotic suspensions were measured with a Coulter Counter (model ZBI-Channelyzer II), using a 100-μm aperture (Civan et al., supra., 1994). As previously described (Wax et al., supra., 1993), the cell volume (vC) of the suspension was taken as the peak of the distribution function. Cell shrinkage was fit as a function of time (t) to a monoexponential function:
vC=v∞+(v0−v∞)−[e^−(t−t^0^)/τ] {1}
where v∞ is the steady-state cell volume, v0 is the cell volume at the first point (t0) of the time course to be fit, and τ is the time constant of the shrinkage. For purposes of data reduction, the data were normalized to the first time point, taken to be 100% isotonic volume. Fits were obtained by nonlinear least-squares regression analysis, permitting both v∞and τ to be variables.
In order to differentiate among these receptors, the experiments were repeated in the present study using a series of agonists and antagonists selective for these receptors. As we wished to identify the effects of these receptors specifically on Cl^− channels, 5 μM gramicidin D was included in all solutions to eliminate any potential contribution from K^+ channels. This ionophore readily partitions into plasma membranes to form a cation-selective pore, and is widely used for studying volume regulation (Hoffmann et al., in Interaction of Cell Volume and Cell Function, Lang et al., eds., Springer, Heidelberg, Germany, pp. 188-248, (ACEP Series 14), 1993)). Under these conditions, release of cell Cl^− becomes the rate-limiting factor in both hypo-(Civan et al., Exp. Eye Res. 54:181-191, 1992) and isoosmotic cell shrinkage (Carre et al., supra., 1997).

[1] = 30 nM IB-MECA, 5 μM gramicidin, FIG. 2A
[2] = FIG. 2D, 100 nM Cl-IB-MECA, IB-MECA in parallel

CNC(=O)[C@H]1O[C@@H](n2cnc3c(NCc4cccc(I)c4)ncnc32)[C@H](O)[C@@H]1O [IB-MECA, N^6-(3-iodobenzyl)-adenosine-5′-N-methyluronamide]
steady-state cell volume (V∞) [1]: 98.5±0.1% | time constant of the shrinkage (τ) [1]: 3.5 ± 1.5 min | effect of adenosine-receptor agonist on isoosmotic volume (100 nM agonist): produced shrinkage | steady-state cell volume (V∞) (100 nM, FIG. 5A): 95.6±0.2% | time constant of the shrinkage (τ) (100 nM, FIG. 5A): 4.5 ± 0.6 min | steady-state cell volume (V∞) (1 μM IB-MECA, FIG. 2A): 95.9±0.3% | time constant of the shrinkage (τ) (1 μM IB-MECA, FIG. 2A): 2.4 ± 0.7 min | steady-state cell volume (V∞) (1 μM IB-MECA, FIG. 2B): 97.5±0.1% | time constant of the shrinkage (τ) (1 μM IB-MECA, FIG. 2B): 7.2 ± 1.0 min | steady-state cell volume (V∞) (3 μM IB-MECA, FIG. 2B): 96.7±0.3% | time constant of the shrinkage (τ) (3 μM IB-MECA, FIG. 2B): 10.0 ± 2.3 min | steady-state cell volume (V∞) (10 μM IB-MECA, FIG. 2B): 97.9±0.2% | time constant of the shrinkage (τ) (10 μM IB-MECA, FIG. 2B): 3.2 ± 1.1 min | steady-state cell volume (V∞) [2]: 96.8±0.4% | time constant of the shrinkage (τ) [2]: 6.3 ± 2.2 min | Kd (Lineweaver-Burk plot of monoexponential fits, FIG. 2C, read-out: apparent Kd for the IB-MECA-induced shrinkage): 55 nM and ~55 nM
